PubChem BioAssay AID328 (DTP/NCI, 2004)
Where “and” joins values, the source holds several entries; their conditions need not be identical. Identical values can stand only once. Inconclusive results and toxic doses are left out.

System: BDF1 mice, P388 leukemia ip, median survival T/C
Test: NCI In Vivo Anticancer Drug Screen. Data for tumor model P388 Leukemia (intraperitoneal) in B6D2F1 (BDF1) mice
Conditions: endpoint: median survival time, higher = longer survival
Outline: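 Mice carrying the transplantable tumour receive compound or vehicle. Survival is followed in each arm, and the treated measure is divided by the vehicle measure.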

[1] = dose: 25.0 mg/kg/injection, schedule: Q01DX009 (ip), vehicle: Klucel (hydroxypropylcellulose) (HPC)
[2] = dose: 50.0 mg/kg/injection, schedule: Q01DX009 (ip), vehicle: Klucel (hydroxypropylcellulose) (HPC)
[3] = dose: 50.0 mg/kg/injection, schedule: Q04DX003 (ip), vehicle: saline with Tween-80
[4] = dose: 50.0 mg/kg/injection, schedule: Q01DX009 (ip), vehicle: saline with Tween-80
[5] = dose: 100.0 mg/kg/injection, schedule: Q01DX009 (ip), vehicle: saline with Tween-80
[6] = dose: 200.0 mg/kg/injection, schedule: Q01DX009 (ip), vehicle: saline with Tween-80
[7] = dose: 100.0 mg/kg/injection, schedule: Q01DX009 (ip), vehicle: saline
[8] = dose: 100.0 mg/kg/injection, schedule: Q04DX003 (ip), vehicle: saline
[9] = dose: 200.0 mg/kg/injection, schedule: Q01DX009 (ip), vehicle: saline
[10] = dose: 200.0 mg/kg/injection, schedule: Q04DX003 (ip), vehicle: saline
[11] = dose: 100.0 mg/kg/injection, schedule: Q04DX003 (ip), vehicle: saline with Tween-80

NC(CCSCc1ccc(N(CCCl)CCCl)cc1)C(=O)O (centres undefined)
T/C (dose: 2.0 mg/kg/injection, schedule: Q01DX009 (ip), vehicle: Klucel (hydroxypropylcellulose) (HPC)): 163 % of control | T/C (dose: 3.0 mg/kg/injection, schedule: Q01DX009 (ip), vehicle: Klucel (hydroxypropylcellulose) (HPC)): 186 % of control | T/C (dose: 4.5 mg/kg/injection, schedule: Q01DX009 (ip), vehicle: Klucel (hydroxypropylcellulose) (HPC)): 190 % of control | T/C (dose: 5.0 mg/kg/injection, schedule: Q04DX003 (ip), vehicle: Klucel (hydroxypropylcellulose) (HPC)): 169 % of control | T/C (dose: 7.0 mg/kg/injection, schedule: Q01DX009 (ip), vehicle: Klucel (hydroxypropylcellulose) (HPC)): 183 % of control and 213 % of control | T/C (dose: 8.0 mg/kg/injection, schedule: Q04DX003 (ip), vehicle: Klucel (hydroxypropylcellulose) (HPC)): 184 % of control | T/C (dose: 11.0 mg/kg/injection, schedule: Q01DX009 (ip), vehicle: Klucel (hydroxypropylcellulose) (HPC)): 212 % of control | T/C (dose: 13.0 mg/kg/injection, schedule: Q04DX003 (ip), vehicle: Klucel (hydroxypropylcellulose) (HPC)): 207 % of control | T/C (dose: 14.0 mg/kg/injection, schedule: Q04DX003 (ip), vehicle: alcohol): 230 % of control | T/C (dose: 17.0 mg/kg/injection, schedule: Q01DX009 (ip), vehicle: Klucel (hydroxypropylcellulose) (HPC)): 225 % of control and 272 % of control | T/C (dose: 20.0 mg/kg/injection, schedule: Q04DX003 (ip), vehicle: Klucel (hydroxypropylcellulose) (HPC)): 230 % of control and 204 % of control | T/C (dose: 21.0 mg/kg/injection, schedule: Q04DX003 (ip), vehicle: alcohol): 226 % of control | T/C [1]: 272 % of control | T/C (dose: 30.0 mg/kg/injection, schedule: Q04DX003 (ip), vehicle: Klucel (hydroxypropylcellulose) (HPC)): 272 % of control | T/C (dose: 33.0 mg/kg/injection, schedule: Q04DX003 (ip), vehicle: saline with Tween-80): 168 % of control and 213 % of control | T/C (dose: 37.0 mg/kg/injection, schedule: Q01DX009 (ip), vehicle: Klucel (hydroxypropylcellulose) (HPC)): 272 % of control | T/C (dose: 45.0 mg/kg/injection, schedule: Q04DX003 (ip), vehicle: Klucel (hydroxypropylcellulose) (HPC)): 268 % of control | T/C [2]: 89 % of control | T/C [3]: 227 % of control and 272 % of control | T/C (dose: 67.0 mg/kg/injection, schedule: Q04DX003 (ip), vehicle: Klucel (hydroxypropylcellulose) (HPC)): 230 % of control | T/C (dose: 75.0 mg/kg/injection, schedule: Q04DX003 (ip), vehicle: saline with Tween-80): 272 % of control and 190 % of control | T/C (dose: 100.0 mg/kg/injection, schedule: Q04DX003 (ip), vehicle: Klucel (hydroxypropylcellulose) (HPC)): 230 % of control and 250 % of control | T/C (dose: 150.0 mg/kg/injection, schedule: Q04DX003 (ip), vehicle: Klucel (hydroxypropylcellulose) (HPC)): 123 % of control | T/C (dose: 375.0 micrograms/kg/injection, schedule: Q04DX003 (ip), vehicle: saline with Tween-80): 120 % of control

COS(C)(=O)=O
T/C (dose: 12.5 mg/kg/injection, schedule: Q01DX010 (ip), vehicle: saline): 100 % of control | T/C (dose: 25.0 mg/kg/injection, schedule: Q01DX010 (ip), vehicle: saline): 104 % of control | T/C (dose: 50.0 mg/kg/injection, schedule: Q01DX010 (ip), vehicle: saline): 108 % of control

OCCC1CC1=C1CC1 (centres undefined)
T/C [1]: 105 % of control | T/C [2]: 105 % of control | T/C (dose: 100.0 mg/kg/injection, schedule: Q01DX009 (ip), vehicle: Klucel (hydroxypropylcellulose) (HPC)): 110 % of control

Nn1c(-c2ccc([N+](=O)[O-])cc2)nc2ccccc2c1=O
T/C [4]: 90 % of control | T/C [5]: 91 % of control | T/C [6]: 91 % of control

C1CCC(=[N+]2CCCC2)CC1
T/C (dose: 50.0 mg/kg/injection, schedule: Q01DX009 (ip), vehicle: saline): 100 % of control | T/C [7]: 100 % of control | T/C [8]: 109 % of control | T/C [9]: 112 % of control | T/C [10]: 100 % of control

CCOC(=O)c1nnc(C)[nH]c1=O
T/C [4]: 103 % of control | T/C [5]: 103 % of control | T/C [6]: 98 % of control

O=C(NC(NC(=O)c1ccc(Cl)cc1)C(Cl)(Cl)Cl)c1ccc(Cl)cc1
T/C (dose: 25.0 mg/kg/injection, schedule: Q04DX003 (ip), vehicle: saline with Tween-80): 90 % of control | T/C [3]: 86 % of control | T/C [11]: 90 % of control

CCN1C=NNc2ccc(Cl)cc2C1=O
T/C [11]: 97 % of control | T/C (dose: 200.0 mg/kg/injection, schedule: Q04DX003 (ip), vehicle: saline with Tween-80): 97 % of control | T/C (dose: 400.0 mg/kg/injection, schedule: Q04DX003 (ip), vehicle: saline with Tween-80): 100 % of control

COC(=O)[C@]1(C)CCC[C@]2(C)[C@H]3CC4OO[C@@]3(CC[C@H]21)[C@H]1O[C@@]41C(C)C
T/C (dose: 100.0 mg/kg/injection, schedule: Q01DX009 (ip), vehicle: other): 120 % of control | T/C (dose: 100.0 mg/kg/injection, schedule: Q04DX003 (ip), vehicle: other): 113 % of control | T/C (dose: 132.0 mg/kg/injection, schedule: Q01DX009 (ip), vehicle: other): 100 % of control | T/C (dose: 200.0 mg/kg/injection, schedule: Q01DX009 (ip), vehicle: other): 87 % of control | T/C (dose: 200.0 mg/kg/injection, schedule: Q04DX003 (ip), vehicle: other): 118 % of control | T/C (dose: 400.0 mg/kg/injection, schedule: Q04DX003 (ip), vehicle: other): 104 % of control

c1c[nH]cn1
T/C [7]: 90 % of control | T/C [8]: 95 % of control | T/C [9]: 100 % of control | T/C [10]: 104 % of control | T/C (dose: 400.0 mg/kg/injection, schedule: Q01DX009 (ip), vehicle: saline): 118 % of control | T/C (dose: 400.0 mg/kg/injection, schedule: Q04DX003 (ip), vehicle: saline): 95 % of control

COc1ccc(CC2c3cc(OC)c(OC)cc3CCN2C(=O)OCc2ccccc2)cc1OC (centres undefined)
T/C (dose: 50.0 mg/kg/injection, schedule: Q01DX005 (ip), vehicle: saline with Tween-80): 91 % of control | T/C (dose: 100.0 mg/kg/injection, schedule: Q01DX005 (ip), vehicle: saline with Tween-80): 93 % of control | T/C (dose: 200.0 mg/kg/injection, schedule: Q01DX005 (ip), vehicle: saline with Tween-80): 92 % of control

Cc1nc(C(N)=O)c(=O)[nH]c1C
T/C (dose: 6.25 mg/kg/injection, schedule: Q04DX003 (ip), vehicle: saline): 104 % of control | T/C (dose: 12.5 mg/kg/injection, schedule: Q04DX003 (ip), vehicle: saline): 109 % of control | T/C (dose: 25.0 mg/kg/injection, schedule: Q04DX003 (ip), vehicle: saline): 100 % of control | T/C (dose: 50.0 mg/kg/injection, schedule: Q04DX003 (ip), vehicle: saline): 88 % of control | T/C (dose: 100.0 mg/kg/injection, schedule: Q04DX003 (ip), vehicle: saline sonified): 104 % of control | T/C (dose: 200.0 mg/kg/injection, schedule: Q04DX003 (ip), vehicle: saline sonified): 104 % of control

NC(=O)C(CO)NC(=O)OCc1ccccc1 (centres undefined)
T/C (dose: 25.0 mg/kg/injection, schedule: Q04DX003 (ip), vehicle: water): 110 % of control | T/C (dose: 50.0 mg/kg/injection, schedule: Q04DX003 (ip), vehicle: water): 103 % of control | T/C (dose: 100.0 mg/kg/injection, schedule: Q04DX003 (ip), vehicle: water): 100 % of control | T/C (dose: 200.0 mg/kg/injection, schedule: Q04DX003 (ip), vehicle: water): 100 % of control | T/C (dose: 400.0 mg/kg/injection, schedule: Q04DX003 (ip), vehicle: water): 103 % of control

c1cc(Sc2cccc3nncn23)n2cnnc2c1
T/C (dose: 100.0 mg/kg/injection, schedule: Q01DX001 (ip), vehicle: saline with Tween-80): 103 % of control | T/C (dose: 200.0 mg/kg/injection, schedule: Q01DX001 (ip), vehicle: saline with Tween-80): 97 % of control | T/C (dose: 400.0 mg/kg/injection, schedule: Q01DX001 (ip), vehicle: saline with Tween-80): 103 % of control

CCOCN(COCC)c1ccc(C)cc1
T/C [4]: 97 % of control | T/C [5]: 104 % of control | T/C [6]: 97 % of control
